Laboratory results reported in patent publication US20090099217A1, “2-Aminopyrimidin-4-Ones And Their Use For Treating Or Preventing Alpha Beta-Related Pathologies” (ASTEX THERAPEUTICS LTD., priority 2006, published 2009).
Structures can show the parent of a compound that is named as a salt.

Molecular target: T1, human β-Secretase (Homo sapiens, UniProt P56817)
T1 construct: The soluble part of the human β-Secretase (AA 1-AA 460) was cloned; Fc domain of IgG1 (C); made in house
Assay: TR-FRET Assay
Format: biochemical
Details: sBACE-Fc enzyme 0.3 nM; substrate (Europium)CEVNLDAEFK(Qsy7) 100 nM; pH 4.5
Procedure: The enzyme used in the IGEN Cleavage-, Fluorescent-, TR-FRET- and the BiaCore assay is described as follows:
The soluble part of the human β-Secretase (AA 1-AA 460) was cloned into the ASP2-Fc10-1-IRES-GFP-neoK mammalian expression vector. The gene was fused to the Fc domain of IgG1 (affinity tag) and stably cloned into HEK 293 cells. Purified sBACE-Fc is stored in Tris buffer, pH 9.2 and has a purity of 95%.
Dilute the enzyme (truncated form) to 6 μg/mL (stock 1.3 mg/mL) and the substrate (Europium)CEVNLDAEFK(Qsy7) to 200 nM (stock 60 μM) in reaction buffer (NaAcetate, chaps, triton x-100, EDTA pH4.5). The Biomek FX is used for all liquid handling and the enzyme and substrate solutions are kept on ice until they are placed in Biomek FX. Enzyme (9 μl) is added to the plate then 1 μl of compound in dimethylsulphoxide is added, mixed and pre-incubated for 10 minutes. Substrate (10 μl) is then added, mixed and the reaction proceeds in the dark for 15 minutes at room temperature. The reaction is stopped with the addition of Stop solution (7 μl, NaAcetate pH 9). The fluorescence of the product is measured on a Victor II plate reader with an excitation wavelength of 340 nm and an emission wavelength of 615 nm. The assay is done in a Costar 384 well round bottom, low volume, non-binding surface (Corning #3676). […]

T1 sequence (P56817 22-460): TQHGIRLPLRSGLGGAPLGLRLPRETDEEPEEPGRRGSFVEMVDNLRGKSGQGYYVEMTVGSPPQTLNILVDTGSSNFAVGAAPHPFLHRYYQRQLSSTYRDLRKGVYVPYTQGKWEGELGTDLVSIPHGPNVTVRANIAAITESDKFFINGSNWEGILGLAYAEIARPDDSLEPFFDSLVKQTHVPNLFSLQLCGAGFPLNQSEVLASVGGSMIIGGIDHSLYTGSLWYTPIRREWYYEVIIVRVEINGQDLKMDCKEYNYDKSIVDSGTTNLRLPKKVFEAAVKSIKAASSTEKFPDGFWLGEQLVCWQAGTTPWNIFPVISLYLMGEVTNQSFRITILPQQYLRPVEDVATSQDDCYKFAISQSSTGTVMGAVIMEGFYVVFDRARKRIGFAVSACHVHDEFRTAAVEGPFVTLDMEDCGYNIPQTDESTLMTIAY

An IC50 of 316 nM was found for `COc1cncc(-c2cccc(C3(C)CC(=O)N(C)C(N)=N3)c2)c1` (centres unmarked) [Example 21, 2-Amino-6-[3-(5-methoxypyridin-3-yl)phenyl]-3,6-dimethyl-5,6-dihydropyrimidin-4(3H)-one hydrochloride] in this work.
An IC50 of 114 nM was found for `CN1C(=O)CC(C)(CCc2cccc(-c3ccnc(Cl)c3)c2)N=C1N` (centres unmarked) [Example 20, 2-Amino-6-{2-[3-(2-chloropyridin-4-yl)phenyl]ethyl}-3,6-dimethyl-5,6-dihydropyrimidin-4(3H)-one hydrochloride] in this work.
